Laboratory results published in US12490739B2, “Synergistically effective fungicide composition comprising choline phosphonate and at least one additional fungicide” (BELCHIM CROP PROTECTION NV, priority 2019, dated 2025).

Tests used:
Assay type in all cases: in vivo
Venturia inaequalis = test: Example 15 field trial, apple (Malus domestica var. Gala) infected with apple scab, France; details: PESINC, 200 leaves, 1200 g a.c./ha
Sphaerotheca fuliginea = test: Example 8 field trial, cucumber (Cucumis sativus) infected with powdery mildew, Spain; details: 7 DA-A3, BBCH 63, 500 g a.c./ha
Podosphaera leucotricha = test: Example 14 field trials, apple (Malus domestica var. Gold Rush, var. Morgenduft Dallago) infected with powdery mildew; details: 840 g a.c./ha

In the case of `OCC1(O)OC[C@@H](O)[C@H](O)[C@@H]1O` (stereo partly drawn) [TAG, (3S,4S,5R)-2-(hydroxymethyl)oxane-2,3,4,5-tetrol], the “TAG f.e. (%)” value (Venturia inaequalis; 28 DA-A12, BBCH 73) was 28.1%, the “TAG f.e. (%)” value (Venturia inaequalis; 56 DA-A12, BBCH 75) was 28.0% and the “TAG f.e. (%)” value (Sphaerotheca fuliginea; PESINC) was 83.9%. The “TAG f.e. (%)” value (Sphaerotheca fuliginea; PESSEV) was 93.2%, the “TAG f.e. (%)” value (Podosphaera leucotricha; PESINC, location 1 (France), 20 shoots, 7 DA-A5, BBCH 71) was 26.7% and the “TAG f.e. (%)” value (Podosphaera leucotricha; PESINC, location 1 (France), 100 leaves, 5 DA-A8, BBCH 74) was 18.8%. The “TAG f.e. (%)” value (Podosphaera leucotricha; PESINC, location 1 (France), 100 leaves, 6 DA-A6, BBCH 74) was 14.5%, the “TAG f.e. (%)” value (Podosphaera leucotricha; PESINC, location 1 (France), 100 leaves, 15 DA-A8, BBCH 76) was 8.7% and the “TAG f.e. (%)” value (Podosphaera leucotricha; PESINC, location 1, 20 shoots, 7 DA-A5, BBCH 71, second listing (r40)) was 0.6%. For the same molecule, the “TAG f.e. (%)” value (Podosphaera leucotricha; PESINC, location 1, 100 leaves, 5 DA-A8, BBCH 74, second listing (r52)) was 2.4%, the “TAG f.e. (%)” value (Podosphaera leucotricha; PESINC, location 1, 100 leaves, 6 DA-A6, BBCH 74, second listing (r46)) was 36.4% and the “TAG f.e. (%)” value (Podosphaera leucotricha; PESINC, location 1, 100 leaves, 15 DA-A8, BBCH 76, second listing (r58)) was 5.9%. For the same molecule, the “TAG f.e. (%)” value (Podosphaera leucotricha; PESSEV, location 1 (France), 100 leaves, 5 DA-A8, BBCH 74) was 38.4%, the “TAG f.e. (%)” value (Podosphaera leucotricha; PESSEV, location 1 (France), 100 leaves, 6 DA-A6, BBCH 74) was 15.6% and the “TAG f.e. (%)” value (Podosphaera leucotricha; PESSEV, location 1 (France), 100 leaves, 15 DA-A8, BBCH 76) was 2.6%. The “TAG f.e. (%)” value (Podosphaera leucotricha; PESSEV, location 1, 100 leaves, 5 DA-A8, BBCH 74, second listing (r49)) was 1.6%, the “TAG f.e. (%)” value (Podosphaera leucotricha; PESSEV, location 1, 100 leaves, 6 DA-A6, BBCH 74, second listing (r43)) was 44.9% and the “TAG f.e. (%)” value (Podosphaera leucotricha; PESSEV, location 1, 100 leaves, 15 DA-A8, BBCH 76, second listing (r55)) was 3.5%.
